Data set [1] can be described thus: Upregulation of utrophin protein expression in mouse C2C12 cells assessed as fold increase at 800 nM measured after 72 hrs by Western blot analysis. The class given is functional. (In general: A western blot detects proteins with antibodies after separation by electrophoresis.)
The subject of data set [2] is C2C12. The data set is described as follows: Upregulation of utrophin mRNA expression in mouse C2C12 level measured after 72 hrs by qRT-PCR analysis. The following applies: dose 200-800 nM. The class given is functional, cell-based. For orientation: Quantitative PCR measures a nucleic acid by following its amplification.
A short description of data set [3]: Upregulation of utrophin expression in mouse C2C12 cells assessed as fold increase at 800 nM measured after 72 hrs by In-cell ELISA method. The class given is functional.
Data set [4] in a line: Lipophilicity, logD of the compound in octanol/PBS at pH 7.4 measured after 1 hr by LC-MS and HPLC analysis. The class given is physicochemical.
Data set [5] deals with C2C12. The data set is described as follows: Upregulation of utrophin mRNA expression in mouse C2C12 cells at 800 nM measured after 72 hrs by qRT-PCR analysis. The class given is functional, cell-based.
The nature of data set [6]: Upregulation of utrophin protein expression in human patient derived KM1328 cells assessed as fold increase at 800 nM measured after 72 hrs by Western blot analysis. The data set is classed as functional.
The target in data set [7] is T1, Aryl hydrocarbon receptor (Mus musculus, UniProt P30561).
T1 sequence (P30561 whole entry): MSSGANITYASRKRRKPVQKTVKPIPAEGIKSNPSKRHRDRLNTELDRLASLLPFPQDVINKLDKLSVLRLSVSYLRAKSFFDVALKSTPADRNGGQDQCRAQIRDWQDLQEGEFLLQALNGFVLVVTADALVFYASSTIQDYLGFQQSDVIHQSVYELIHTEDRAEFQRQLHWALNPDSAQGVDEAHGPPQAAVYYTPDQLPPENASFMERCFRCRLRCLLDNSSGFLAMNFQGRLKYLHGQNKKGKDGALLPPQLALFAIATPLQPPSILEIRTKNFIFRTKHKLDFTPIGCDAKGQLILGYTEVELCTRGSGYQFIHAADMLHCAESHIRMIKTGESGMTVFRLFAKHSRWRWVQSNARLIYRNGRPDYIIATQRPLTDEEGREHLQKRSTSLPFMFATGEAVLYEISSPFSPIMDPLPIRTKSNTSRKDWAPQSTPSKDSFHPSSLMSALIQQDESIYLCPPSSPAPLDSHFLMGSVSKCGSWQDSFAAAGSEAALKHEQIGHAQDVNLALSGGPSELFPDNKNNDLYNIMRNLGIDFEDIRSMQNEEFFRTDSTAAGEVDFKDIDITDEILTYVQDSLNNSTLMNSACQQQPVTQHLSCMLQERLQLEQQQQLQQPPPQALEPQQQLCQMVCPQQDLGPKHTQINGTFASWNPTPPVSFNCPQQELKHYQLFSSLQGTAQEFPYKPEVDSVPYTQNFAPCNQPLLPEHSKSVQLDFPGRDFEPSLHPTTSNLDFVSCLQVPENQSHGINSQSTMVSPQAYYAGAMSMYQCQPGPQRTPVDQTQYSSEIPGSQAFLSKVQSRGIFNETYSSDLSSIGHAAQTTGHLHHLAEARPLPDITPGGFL
The data set is described as follows: Antagonist activity at AhR in mouse C2C12 cells assessed as reduction in ITE induced AhR nuclear translocation at 800 nM measured after 2 hrs by Hoechst 33258 staining based fluorescence microscopy analysis. The data set is classed as cell-based. The following applies: c2c12, 2 h, 0.8 µM.

Data set [8] concerns C2C12. The data set is described as follows: Cytotoxicity against mouse C2C12 cells assessed as reduction in cell viability at 0.78 to 100 uM measured after 24 hrs by MTT assay. The class given is toxicity, cell-based. The following applies: c2c12, 24 h, dose 0.78-100 µM. On the technique in general: Formazan colour is commonly taken as a measure of viable cells.
Data set [9] is described as follows: Aqueous solubility of the compound in DMSO measured after 2 hrs by turbidity assay. The class given is physicochemical.
The target in data set [10] is T1, Aryl hydrocarbon receptor. The data set is described as follows: Induction of AhR nuclear translocation in mouse C2C12 cells at 800 nM measured after 2 hrs by Hoechst 33258 staining based fluorescence microscopy analysis. The data set is classed as cell-based. Particulars: c2c12, 2 h, 0.8 µM.
The next data set is filed under the species Homo sapiens. The experiment in a line: Binding affinity to recombinant AhR/ARNT (unknown origin) assessed as binding constant incubated for 30 mins by fluorescence quenching analysis. The following applies: filed as antagonist.
Data set [11] is described as follows: Binding affinity to recombinant AhR/ARNT (unknown origin) assessed as dissociation constant incubated for 30 mins by fluorescence quenching analysis. On the set-up: species or system Homo sapiens.
Data set [12] has as its target T1, Aryl hydrocarbon receptor. The data set is described as follows: Antagonist activity at AhR in mouse C2C12 cells assessed as reversal of TCDD inhibited myogenesis by measuring fold change at 800 nM measured after 7 days by Hoechst 33258 staining based fluorescence microscopy analysis. The class given is cell-based. Particulars: c2c12, 168 h, 0.8 µM, time 7 day.

A short description of data set [13]: Metabolic stability in rat liver microsomes assessed as intrinsic clearance at 5 uM preincubated for 5 mins followed by NADPH addition and measured upto 60 mins by LC-MS analysis. The class given is ADME, Microsome. The following applies: time < 65 min, read-out: CLH.
Data set [14] can be described thus: Stability in human serum assessed as remaining compound at 50 uM measured after 2 hrs by LC-MS and HPLC analysis. Particulars: read-out: Stability. The class given is ADME, cell-free.
Data set [15] is described as follows: Upregulation of utrophin mRNA expression in mouse C2C12 cells assessed as fold increase at 800 nM measured after 72 hrs by qRT-PCR analysis. The class given is functional.
For data set [16], the system named is C2C12. The experiment in a line: Upregulation of utrophin protein expression in mouse C2C12 level measured after 72 hrs by Westernblot analysis. The data set is classed as functional, cell-based. Particulars: dose 200-800 nM.
A short description of data set [17]: Lipophilicity, logD of the compound in cyclohexane/PBS at pH 7.4 measured after 1 hr by LC-MS and HPLC analysis. The data set is classed as physicochemical. The following applies: pH 7.4, 1 h.
A short description of data set [18]: Stability in human plasma assessed as remaining compound at 50 uM measured after 2 hrs by LC-MS and HPLC analysis. The data set is classed as ADME, cell-free. Particulars: read-out: Stability.
Data set [19] deals with T1, Aryl hydrocarbon receptor. The experiment in a line: Antagonist activity at AhR in mouse C2C12 cells assessed as reduction in ITE induced AhR nuclear translocation measured after 2 hrs by Hoechst 33258 staining based fluorescence microscopy analysis. The data set is classed as cell-based. Particulars: c2c12, 2 h.
The nature of data set [20]: Upregulation of utrophin protein expression in human patient derived KM1328 cells assessed as fold increase at 3 uM measured after 72 hrs by […]. The class given is functional.
Data set [21] can be described thus: Upregulation of utrophin expression in mouse C2C12 cells assessed as fold increase at 3 uM measured after 72 hrs by In-cell ELISA method. The class given is functional.

Values after ≈ are worked out from the molar mass of the structure shown. Active and inactive are the calls of the source. The calls are words filed in the database; no cut-off is given here.

The logD is lipophilicity at a set pH, counting ionised and neutral species. Low values mean lower lipophilicity, high ones higher lipophilicity. A word on the solubility (kinetic): it is the concentration staying in solution when a stock, usually in DMSO, is diluted into the medium. Broadly, the Kd is a measure of binding affinity in units of concentration. Turning to `CS(=O)(=O)c1ccc2nc(NCc3ccc(F)cc3)ncc2c1`, the “fold change (FC)” value in data set [1] is given as 2.72; in data set [3], 2.14; in data set [6], 2.3; in [12] it was 2; in data set [15], 2.11. Further, the Activity result in the data set with C2C12 [2] was “Dose-Dependent Effect”; in data set [7] it was “Active”; in the data set on C2C12 [8] it was “Toxic”; in [10] it was “Not Active”; with C2C12 [16], “Dose-Dependent Effect”. In data set [4], this molecule returned a logD at 1 h of 2.46. Besides, the result in the data set on C2C12 [5] was Active. Moreover, in [9], the solubility (kinetic) at 2 h was determined as 30 µM (≈ 9.94 µg/mL). In addition, the Ka in the data set filed under Homo sapiens was found to be 24 µM⁻¹. Moreover, the dissociation constant Kd in data set [11] was found to be 41.7 nM. Moreover, the microsomal CLint at 5 µM in data set [13] stood at 6.66 µL/min/mg. Further, the remaining at 2 h, 50 µM in data set [14] was determined as 70%; in [18], 69.2%. Besides, the pH-dependent lipophilicity (logD) in data set [17] was 0.2.

With `O=C(/C=C/C=C/c1ccc2c(c1)OCO2)N1CCCCC1` [PIPERINE], in data set [19], the Activity result was “Not Active”. Besides, the entries for the “fold change (FC)” value in [20] and in [21] were 0.99 and 1.3, respectively.

Source of the values: ChEMBL document CHEMBL5506058, “Discovery of Quinazoline and Quinoline-Based Small Molecules as Utrophin Upregulators via AhR Antagonism for the Treatment of Duchenne Muscular Dystrophy” (J Med Chem, 2024).
